Data taken from patent US9732094B2, “Arylquinazolines” (Merck Patent GmbH, priority 2013, dated 2017).
Where two headings read alike, the source gives them in different places.

Tests used:
[1] = molecular target: DNA-PK phosphorylation at serine 2056 (Homo sapiens (Human), UniProt P78527); assay: DNA-PK phosphorylation at serine 2056 (cellular), bleomycin-treated HCT116 cells, ELISA; assay type: cell-based; conditions: cellular DNA-PK phosphorylation at serine 2056, HCT116; read-out: IC50 pDNA-PK
Method in brief: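 HCT116 cells were treated with 10 μM bleomycin plus test compounds for six hours at 37 °C. Phospho-Ser2056 DNA-PK measured by chemiluminescent ELISA, normalised to total DNA-PKcs signal; DMSO control as blank.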

DNA-PK = DNA-PK (Homo sapiens (Human), UniProt P78527); assay: DNA-PK assay (biochemical), flashplate 33P-ATP kinase assay; conditions: biochemical DNA-PK assay
Method in brief: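 Radiometric kinase reaction in streptavidin-coated flashplates, stopped with 200 mM EDTA, then 30 min room-temperature incubation and saline washes.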

Kv11.1 (hERG) = Kv11.1 (hERG) (Homo sapiens (Human), UniProt Q12809); assay: Kv11.1 (hERG) ion channel activity (patch clamp assay), HEK293 cells transfected with hERG gene; conditions: hERG patch clamp assay (cells without asterisk)
Sequence of Kv11.1 (hERG) (Q12809 whole entry): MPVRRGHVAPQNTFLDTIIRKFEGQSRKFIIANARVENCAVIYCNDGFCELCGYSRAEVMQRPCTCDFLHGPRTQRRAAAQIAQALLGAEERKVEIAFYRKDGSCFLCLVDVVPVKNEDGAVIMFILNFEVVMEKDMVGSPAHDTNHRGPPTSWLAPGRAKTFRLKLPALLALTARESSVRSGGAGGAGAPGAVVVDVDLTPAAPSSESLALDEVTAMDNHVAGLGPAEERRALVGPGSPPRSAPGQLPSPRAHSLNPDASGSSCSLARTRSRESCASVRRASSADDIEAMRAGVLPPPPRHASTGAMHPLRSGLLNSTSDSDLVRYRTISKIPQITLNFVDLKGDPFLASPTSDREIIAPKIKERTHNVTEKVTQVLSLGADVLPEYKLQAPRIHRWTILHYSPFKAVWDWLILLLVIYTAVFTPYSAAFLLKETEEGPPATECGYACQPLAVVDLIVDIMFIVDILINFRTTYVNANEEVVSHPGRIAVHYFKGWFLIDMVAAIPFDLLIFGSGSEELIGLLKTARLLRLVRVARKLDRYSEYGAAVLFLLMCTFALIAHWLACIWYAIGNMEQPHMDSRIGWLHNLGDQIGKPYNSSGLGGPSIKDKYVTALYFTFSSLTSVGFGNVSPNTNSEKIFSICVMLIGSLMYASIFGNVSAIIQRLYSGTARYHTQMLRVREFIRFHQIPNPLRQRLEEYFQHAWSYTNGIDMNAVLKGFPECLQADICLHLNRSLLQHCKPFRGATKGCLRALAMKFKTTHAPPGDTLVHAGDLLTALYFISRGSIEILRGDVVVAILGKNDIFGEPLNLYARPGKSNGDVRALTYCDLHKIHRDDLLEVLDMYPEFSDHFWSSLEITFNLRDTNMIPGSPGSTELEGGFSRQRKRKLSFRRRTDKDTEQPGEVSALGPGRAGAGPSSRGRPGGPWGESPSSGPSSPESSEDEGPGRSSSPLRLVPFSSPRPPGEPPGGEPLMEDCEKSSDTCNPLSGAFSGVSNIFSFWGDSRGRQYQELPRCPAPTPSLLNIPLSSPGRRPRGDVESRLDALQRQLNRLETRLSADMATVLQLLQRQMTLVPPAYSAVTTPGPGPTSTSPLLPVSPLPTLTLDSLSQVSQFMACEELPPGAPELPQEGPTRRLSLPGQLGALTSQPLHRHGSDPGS

Compound: CN1CCN(c2nccnc2C(O)c2ccc(F)c(-c3ncnc4cc(N5CCOCC5)ccc34)c2)C1=O (stereo not drawn) [Example 424, 1-(3-{[4-Fluoro-3-(7-morpholin-4-yl-quinazolin-4-yl)-phenyl]hydroxy-methyl}pyrazin-2-yl)-3-methyl-imidazolidin-2-one]
- IC50 [1]: 10000 to 30000 nM
- IC50 (DNA-PK): > 30 nM
- Ki (Kv11.1 (hERG); read-out: Ki [Kv1.11 hERG]): > 25000 nM

Compound: O=C1CCCN1c1nccnc1C(O)c1ccc(F)c(-c2ncnc3cc(N4CCOCC4)ccc23)c1 (stereo not drawn) [Example 425, 1-(3-{[4-Fluoro-3-(7-morpholin-4-yl-quinazolin-4-yl)-phenyl]hydroxy-methyl}pyrazin-2-yl)-pyrrolidin-2-one]
- IC50 [1]: 10000 to 30000 nM
- IC50 (DNA-PK): > 30 nM
- Ki (Kv11.1 (hERG); read-out: Ki [Kv1.11 hERG]): > 25000 nM

Compound: Cc1nccnc1C(O)c1cc(-c2ncnc3cc(N4CCOCC4)ccc23)ccc1Cl (stereo not drawn) [Example 426, [2-Chloro-5-(7-morpholin-4-yl-quinazolin-4-yl)-phenyl]-(3-methyl-pyrazin-2-yl)-methanol]
- IC50 [1]: 500 to 5000 nM
- IC50 (DNA-PK): 7 to 30 nM
- Ki (Kv11.1 (hERG); read-out: Ki [Kv1.11 hERG]): > 25000 nM

Compound: Cc1nccnc1C(O)c1cc(-c2ncnc3cc(N4CCOCC4)ccc23)ccc1Cl (stereo not drawn) [Example 427, [2-Chloro-5-(7-morpholin-4-yl-quinazolin-4-yl)-phenyl]-(3-methyl-pyrazin-2-yl)-methanol]
- IC50 [1]: 500 to 5000 nM
- IC50 (DNA-PK): 7 to 30 nM
- Ki (Kv11.1 (hERG); Ki [Kv1.11 hERG]): 15000 to 25000 nM

Compound: Cc1nccnc1C(O)c1cc(-c2ncnc3cc(N4CCOCC4)ccc23)ccc1Cl (stereo not drawn) [Example 428, [2-Chloro-5-(7-morpholin-4-yl-quinazolin-4-yl)-phenyl]-(3-methyl-pyrazin-2-yl)-methanol]
- IC50 [1]: < 500 nM
- IC50 (DNA-PK): 7 to 30 nM
- Ki (Kv11.1 (hERG); Ki [Kv1.11 hERG]): 10000 to 15000 nM

Compound: OC(c1cc(-c2ncnc3cc(N4CCOCC4)ccc23)c(F)cc1Cl)c1ncnc2sccc12 (stereo not drawn) [Example 429, [2-Chloro-4-fluoro-5-(7-morpholin-4-yl-quinazolin-4-yl)-phenyl]thieno[2,3-d}-pyrimidin-4-yl-methanol]
- IC50 [1]: < 500 nM
- IC50 (DNA-PK): < 3 nM
- Ki (Kv11.1 (hERG); read-out: Ki [Kv1.11 hERG]): < 10000 nM

Compound: OC(c1cc(-c2ncnc3cc(N4CCOCC4)ccc23)ccc1Cl)c1ncnc2sccc12 (stereo not drawn) [Example 430, [2-Chloro-5-(7-morpholin-4-yl-quinazolin-4-yl)-phenyl]thieno[2,3-d}-pyrimidin-4-yl-methanol]
- IC50 [1]: < 500 nM
- IC50 (DNA-PK): 3 to 7 nM
- Ki (Kv11.1 (hERG); read-out: Ki [Kv1.11 hERG]): > 25000 nM

Compound: OC(c1cc(-c2ncnc3cc(N4CCOCC4)ccc23)ccc1Cl)c1ncnc2ccoc12 (stereo not drawn) [Example 432, [2-Chloro-5-(7-morpholin-4-yl-quinazolin-4-yl)-phenyl]furo[3,2-d}-pyrimidin-4-yl-methanol]
- IC50 [1]: 500 to 5000 nM
- IC50 (DNA-PK): 7 to 30 nM
- Ki (Kv11.1 (hERG); read-out: Ki [Kv1.11 hERG]): 10000 to 15000 nM

Compound: Cn1cnc2ncnc(C(O)c3ccc(F)c(-c4ncnc5cc(N6CCOCC6)ccc45)c3)c21 (stereo not drawn) [Example 433, [4-Fluoro-3-(7-morpholin-4-yl-quinazolin-4-yl)-phenyl]-(7-methyl-7H-purin-6-yl)-methanol]
- IC50 [1]: 500 to 5000 nM
- IC50 (DNA-PK): 7 to 30 nM
- Ki (Kv11.1 (hERG); read-out: Ki [Kv1.11 hERG]): > 25000 nM

Compound: OC(c1ccc(F)c(-c2ncnc3cc(N4CCOCC4)ccc23)c1)c1ncnc2occc12 (stereo not drawn) [Example 434, [4-Fluoro-3-(7-morpholin-4-yl-quinazolin-4-yl)-phenyl]furo[2,3-d}-pyrimidin-4-yl-methanol]
- IC50 [1]: < 500 nM
- IC50 (DNA-PK): < 3 nM
- Ki (Kv11.1 (hERG); read-out: Ki [Kv1.11 hERG]): > 25000 nM

Compound: Cn1c(C(O)c2cc(-c3ncnc4cc(N5CCOCC5)ccc34)c(F)cc2Cl)cccc1=O (stereo not drawn) [Example 435, 6-{[2-Chloro-4-fluoro-5-(7-morpholin-4-yl-quinazolin-4-yl)-phenyl]hydroxy-methyl}-l-methyl-1H-pyridin-2-one]
- IC50 [1]: < 500 nM
- IC50 (DNA-PK): 3 to 7 nM
- Ki (Kv11.1 (hERG); read-out: Ki [Kv1.11 hERG]): > 25000 nM

Compound: Cn1c(C(O)c2cc(-c3ncnc4cc(N5CCOCC5)ccc34)c(F)cc2F)cccc1=O (stereo not drawn) [Example 436, 6-{[2,4-Difluoro-5-(7-morpholin-4-yl-quinazolin-4-yl)-phenyl]hydroxy-methyl}-1-methyl-1H-pyridin-2-one]
- IC50 [1]: 500 to 5000 nM
- IC50 (DNA-PK): 3 to 7 nM
- Ki (Kv11.1 (hERG); read-out: Ki [Kv1.11 hERG]): > 25000 nM

Compound: OC(c1ccc(F)c(-c2ncnc3cc(N4CCOCC4)ccc23)c1)c1ncnc2sccc12 (stereo not drawn) [Example 437, [4-Fluoro-3-(7-morpholin-4-yl-quinazolin-4-yl)-phenyl]thieno[2,3-d}-pyrimidin-4-yl-methanol]
- IC50 [1]: < 500 nM
- IC50 (DNA-PK): < 3 nM
- Ki (Kv11.1 (hERG); Ki [Kv1.11 hERG]): 10000 to 15000 nM

Compound: OC(c1ccc(F)c(-c2ncnc3cc(N4CCOCC4)ccc23)c1)c1ncnc2ccsc12 (stereo not drawn) [Example 438, [4-Fluoro-3-(7-morpholin-4-yl-quinazolin-4-yl)-phenyl]thieno[3,2-d}-pyrimidin-4-yl-methanol]
- IC50 [1]: < 500 nM
- IC50 (DNA-PK): < 3 nM
- Ki (Kv11.1 (hERG); Ki [Kv1.11 hERG]): 10000 to 15000 nM

Compound: OC(c1cc(-c2ncnc3cc(N4CCOCC4)ccc23)c(F)cc1F)c1ncnc2ccsc12 (stereo not drawn) [Example 439, [2,4-Difluoro-5-(7-morpholin-4-yl-quinazolin-4-yl)-phenyl]thieno[3,2-d}-pyrimidin-4-yl-methanol]
- IC50 [1]: < 500 nM
- IC50 (DNA-PK): < 3 nM
- Ki (Kv11.1 (hERG); Ki [Kv1.11 hERG]): 10000 to 15000 nM

Compound: OC(c1cc(-c2ncnc3cc(N4CCOCC4)ccc23)c(F)cc1Cl)c1ncnc2ccoc12 (stereo not drawn) [Example 440, [2-Chloro-4-fluoro-5-(7-morpholin-4-yl-quinazolin-4-yl)-phenyl]furo[3,2-d}-pyrimidin-4-yl-methanol]
- IC50 [1]: < 500 nM
- IC50 (DNA-PK): < 3 nM
- Ki (Kv11.1 (hERG); Ki [Kv1.11 hERG]): 15000 to 25000 nM

Compound: OC(c1cc(-c2ncnc3cc(N4CCOCC4)ccc23)c(F)cc1Cl)c1ncnc2ccoc12 (stereo not drawn) [Example 441, [2-Chloro-4-fluoro-5-(7-morpholin-4-yl-quinazolin-4-yl)-phenyl]furo[3,2-d}-pyrimidin-4-yl-methanol]
- IC50 [1]: < 500 nM
- IC50 (DNA-PK): < 3 nM
- Ki (Kv11.1 (hERG); Ki [Kv1.11 hERG]): 10000 to 15000 nM

Compound: OC(c1ccc(F)c(-c2ncnc3cc(N4CCOCC4)ccc23)c1)c1ncnc2ccoc12 (stereo not drawn) [Example 442, [4-Fluoro-3-(7-morpholin-4-yl-quinazolin-4-yl)-phenyl]furo[3,2-d}-pyrimidin-4-yl-methanol]
- IC50 [1]: < 500 nM
- IC50 (DNA-PK): < 3 nM
- Ki (Kv11.1 (hERG); read-out: Ki [Kv1.11 hERG]): > 25000 nM

Compound: OC(c1cc(-c2ncnc3cc(N4CCOCC4)ccc23)c(F)cc1F)c1ncnc2ccoc12 (stereo not drawn) [Example 444, [2,4-Difluoro-5-(7-morpholin-4-yl-quinazolin-4-yl)-phenyl]furo[3,2-d}-pyrimidin-4-yl-methanol]
- IC50 [1]: 500 to 5000 nM
- IC50 (DNA-PK): < 3 nM
- Ki (Kv11.1 (hERG); read-out: Ki [Kv1.11 hERG]): > 25000 nM

Compound: COc1cncnc1C(O)c1cc(-c2ncnc3cc(N4CCOCC4)ccc23)c(F)cc1Cl (stereo not drawn) [Example 447, [2-Chloro-4-fluoro-5-(7-morpholin-4-yl-quinazolin-4-yl)-phenyl]-(5-methoxy-pyrimidin-4-yl)-methanol]
- IC50 [1]: 500 to 5000 nM
- IC50 (DNA-PK): < 3 nM
- Ki (Kv11.1 (hERG); Ki [Kv1.11 hERG]): 10000 to 15000 nM

Compound: COc1cncnc1C(O)c1cc(-c2ncnc3cc(N4CCOCC4)ccc23)c(F)cc1F (stereo not drawn) [Example 448, [2,4-Difluoro-5-(7-morpholin-4-yl-quinazolin-4-yl)-phenyl]-(5-methoxy-pyrimidin-4-yl)-methanol]
- IC50 [1]: 500 to 5000 nM
- IC50 (DNA-PK): < 3 nM
- Ki (Kv11.1 (hERG); Ki [Kv1.11 hERG]): 10000 to 15000 nM

Compound: OC(c1cc(-c2ncnc3cc(N4CCOCC4)ccc23)c(F)cc1F)c1nccnc1OC(F)F (stereo not drawn) [Example 449, (3-Difluoromethoxy-pyrazin-2-yl)-[2,4-difluoro-5-(7-morpholin-4-yl-quinazolin-4-yl)-phenyl]methanol]
- IC50 [1]: 500 to 5000 nM
- IC50 (DNA-PK): < 3 nM
- Ki (Kv11.1 (hERG); read-out: Ki [Kv1.11 hERG]): > 25000 nM
